Patent US20230374575A1, “METHOD FOR VIRUS DETECTION” (priority 2020, published 2023)
Where “and” joins values, the source holds several entries; their conditions need not be identical. Equal values may be shown once.

Assays:
Taq polymerase = biological target: T1, Taq polymerase (Thermus aquaticus, UniProt P19821); test: (RT-)qPCR with test substance added, DNA template; format: biochemical; conditions: for maximal non-inhibiting concentration, Taq polymerase: final concentration in (RT-)PCR, QuantiNova Pathogen Mix, 40 cycles, compared to water control (Examples 1, 2)
T1 construct: purchased QIAGEN (QuantiNova Pathogen + IC Kit; QIAprep& Viral RNA UM Kit)

[1] = system: reverse transcriptase (RT); test: (RT-)qPCR with test substance added, RT reaction (IC RNA template); format: biochemical; conditions: for maximal non-inhibiting concentration, RT reaction: final concentration in (RT-)PCR, QuantiNova Pathogen Mix, 40 cycles, compared to water control (Examples 1, 2)
DNA and/or RNA viruses = test: Virucidal suspension tests, summary statement; format: cell-based; conditions: summary of the examples; against DNA and/or RNA viruses
Bovine coronavirus = test: Virucidal activity test according to DIN EN 14476:2019-10, Bovine coronavirus; format: cell-based, Bovine coronavirus (Betacoronavirus 1); conditions: for inactivation of Bovine coronavirus (in words): at the tested concentrations (Example 4); for Log10 reduction factor(s) incl. 95% confidence interval(s) against Bovine coronavirus: conc. 1% (DDAC 0.015%, Braunol povidone iodine 0.05%), initial results
Experimental: Analysis was performed by Henkel (Dusseldorf) according to the European norm DIN EN 14476:2019-10.
The following test for virucidal activity of the different test substances were performed by Henkel (Dusseldorf) according to the European norm DIN EN 14476:2019-10. The experimental conditions were identical to those in Example 3 but with a Bovine coronavirus instead of Vaccinia virus.

[2] = system: Vaccinia Virus, Elstree strain, ATCC VR1549; format: cell-based
[3] = system: in vitro transcribed SARS-CoV-2 genes N1 and N2; format: biochemical
(RT-)PCR reaction = test: (RT-)PCR compatibility of test substance, reaction as a whole; format: biochemical
[4] = system: N1 and N2 genes of SARS-CoV-2; format: biochemical
[5] = Example 6, FIG. 6A, Tween20 at very high concentrations, Tween60 and Brij58 at much lower concentrations
[6] = Example 7, FIG. 7, without Tween20
[7] = Example 8, FIG. 8, substance alone, increasing concentrations, QIAprep&amp reaction mix without Extraction Buffer step

T1 sequence (P19821 whole entry): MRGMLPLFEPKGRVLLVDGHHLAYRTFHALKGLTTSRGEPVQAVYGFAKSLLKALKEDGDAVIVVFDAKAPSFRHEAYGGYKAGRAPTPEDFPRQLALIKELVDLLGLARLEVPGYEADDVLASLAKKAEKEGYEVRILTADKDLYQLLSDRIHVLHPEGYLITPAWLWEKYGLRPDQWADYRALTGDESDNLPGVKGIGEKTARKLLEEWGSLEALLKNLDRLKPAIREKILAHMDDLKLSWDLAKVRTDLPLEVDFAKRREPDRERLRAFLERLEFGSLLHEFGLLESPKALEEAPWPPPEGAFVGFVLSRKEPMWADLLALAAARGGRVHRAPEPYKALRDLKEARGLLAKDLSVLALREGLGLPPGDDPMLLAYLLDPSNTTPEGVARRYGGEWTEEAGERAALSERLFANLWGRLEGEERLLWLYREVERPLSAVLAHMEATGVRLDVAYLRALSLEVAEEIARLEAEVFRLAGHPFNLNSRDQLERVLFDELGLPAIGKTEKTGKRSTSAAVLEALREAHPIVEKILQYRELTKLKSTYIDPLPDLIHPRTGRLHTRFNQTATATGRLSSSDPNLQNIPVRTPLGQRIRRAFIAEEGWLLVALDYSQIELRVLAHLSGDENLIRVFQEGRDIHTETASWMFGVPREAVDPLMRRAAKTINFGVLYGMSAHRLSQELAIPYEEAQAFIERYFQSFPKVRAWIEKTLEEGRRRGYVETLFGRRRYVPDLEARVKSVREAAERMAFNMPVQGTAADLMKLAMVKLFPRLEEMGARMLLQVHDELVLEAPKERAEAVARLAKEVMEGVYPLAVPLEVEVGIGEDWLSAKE

Question: For povidone iodine, which “maximal non-inhibiting concentration, Taq polymerase” value (Taq polymerase) is on record?
Answer: ≤ 0.0175%

Question: And the “maximal non-inhibiting concentration, RT reaction” value [1]?
Answer: ≤ 0.0175%

Question: And the “reduction of the virus titer” value (DNA and/or RNA viruses)?
Answer: about 4 log10

Question: What about the “inactivation of Bovine coronavirus (in words)” value (Bovine coronavirus) of the same compound?
Answer: effectively inactivated

Question: What about the “Log10 reduction factor(s) incl. 95% confidence interval(s) against Bovine coronavirus” value (Bovine coronavirus; contact time 15 min) of the same compound?
Answer: >6.13 ± 0.25 Log10

Question: What about the “Log10 reduction factor(s) incl. 95% confidence interval(s) against Bovine coronavirus” value (Bovine coronavirus; contact time 60 min) of the same compound?
Answer: >5.88 ± 0.25 Log10

Question: And the “reduction of the virus titer” value [2]?
Answer: 4 log10 grades

Question: What about the “virucidal activity against Vaccinia virus (in words)” value (from here on “virucidal activity”) [2] of the same compound?
Answer: strong virucidal activity

Question: And the “inhibition of the (RT-)PCR (in words)” value [3]?
Answer: significant inhibition

Question: Which “concentration at which Ct-values increase again” value [3] does the source give for `O=C(O)CCP(CCC(=O)O)CCC(=O)O` [TCEP, Tris-(2-carboxyethyl)-phosphin] here?
Answer: ≥ 2 mM

Question: What about the “concentration that neutralizes the inhibitory effect of 0.5% povidone iodine in RT-PCR” value [3] of the same compound?
Answer: 5 mM

Question: And the “decrease of the Ct-value” [3]?
Answer: about 2

Question: “polyoxyethylene(20) cetyl ether [Brij58]” was tested. Which “inhibition of the (RT-)PCR (in words)” value ((RT-)PCR reaction; [5]) did it give?
Answer: no PCR inhibition at all

Question: `CCCCCCCCCCCC(=O)OCCOCCOCCOCCOCCOCCOCCOCCOCCOCCOCCOCCOCCOCCOCCOCCOCCOCCOCCOCCOCC(OCCOCCOCCOCCOCCOCCOCCOCCOCCOCCOCCOCCOCCOCCOCCOCCOCCOCCOCCOCCO)C1OCC(OCCOCCOCCOCCOCCOCCOCCOCCOCCOCCOCCOCCOCCOCCOCCOCCOCCOCCOCCOCCO)C1OCCOCCOCCOCCOCCOCCOCCOCCOCCOCCOCCOCCOCCOCCOCCOCCOCCOCCOCCOCCO` (centres unmarked) [Tween20, polyoxyethylene (20) sorbitan monolaurate] was tested. Which “counteracting effect on SDS inhibition of the Taq polymerase (in words)” value (Taq polymerase; 3% and 5% Tween20 in the PCR, even at the highest concentrations of SDS tested) did it give?
Answer: reactivates the activity

Question: And the “maximal non-inhibiting concentration, Taq polymerase” value (Taq polymerase)?
Answer: ≤ 0.35%

Question: And the “counteracting effect on SDS inhibition of the reverse transcription (in words)” value ([1]; 3% and 5% Tween20 in the PCR, depending on the Tween20 concentration)?
Answer: significantly reduced

Question: What about the “maximal non-inhibiting concentration, RT reaction” value [1] of the same compound?
Answer: ≤ 0.35%

Question: And the “enzyme inhibition in (RT-)PCR (in words)” value ((RT-)PCR reaction; 0.7% final concentration in (RT-)PCR)?
Answer: some inhibition

Question: And the “inhibition of the (RT-)PCR (in words)” value ((RT-)PCR reaction; [5])?
Answer: only a moderate inhibition

Question: What about the “log10 reduction factor(s) incl. 95% confidence interval(s) against Vaccinia Virus, Elstree strain, ATCC VR1549, with clean conditions” value [2] of the same compound?
Answer: 2.00 ± 0.54 log10 and 1.88 ± 0.41 log10

Question: What about the “virucidal activity” value [2] of the same compound?
Answer: least reduction of the virus titer

Question: How did the “maximal non-inhibiting concentration, Taq polymerase” value (Taq polymerase) turn out when `CCCCCCCCCCCC[N+](C)(C)[O-]` [LDAO, Lauryldimethylamin-N-oxide (N,N-Dimethyldodecylamine N-oxide)] was run?
Answer: 0.035%

Question: And the “inhibition of the RT reaction (in words)” value ([1]; LDAO at 0.035%, Ecosurf EH-9 at all tested concentrations (0.035-0.7%), compared to water control)?
Answer: slight but acceptable inhibition

Question: What about the “maximal non-inhibiting concentration, RT reaction” value [1] of the same compound?
Answer: 0.035%

Question: For “polyoxyethylene (20) sorbitan monostearate [Tween60]”, which “inhibition of the (RT-)PCR (in words)” value ((RT-)PCR reaction; [5]) is on record?
Answer: no PCR inhibition at all

Question: With `CCCCCCCCCCCCOS(=O)(=O)[O-].[Na+]` [SDS, Sodium dodecyl sulfate] as the compound, how does the “concentration from which Ct-values increase, Taq polymerase” value (Taq polymerase; [6]) read?
Answer: ≥ 0.125%

Question: And the “concentration from which Ct-values increase, reverse transcriptase” value [1, 6]?
Answer: ≥ 0.03125%

Question: And the “inhibition of the (RT-)PCR (in words)” value ((RT-)PCR reaction; [7])?
Answer: significant inhibition

Question: `CCCCCCCCCC[N+](C)(C)CCCCCCCCCC.[Cl-]` [DDAC, Didecyldimethylammonium chloride] was tested. Which “maximal non-inhibiting concentration, Taq polymerase” value (Taq polymerase) did it give?
Answer: ≤ 0.005%

Question: What about the “maximal non-inhibiting concentration, RT reaction” value [1] of the same compound?
Answer: ≤ 0.005%

Question: And the “inhibition of the (RT-)PCR (in words)” value ((RT-)PCR reaction; [7])?
Answer: significant inhibition

Question: And the “reduction of the virus titer” value (DNA and/or RNA viruses)?
Answer: about 4 log10

Question: And the “inactivation of Bovine coronavirus (in words)” value (Bovine coronavirus)?
Answer: effectively inactivated

Question: What about the “Log10 reduction factor(s) incl. 95% confidence interval(s) against Bovine coronavirus” value (Bovine coronavirus; contact time 15 min) of the same compound?
Answer: >5.13 ± 0.25 Log10

Question: What about the “Log10 reduction factor(s) incl. 95% confidence interval(s) against Bovine coronavirus” value (Bovine coronavirus; contact time 60 min) of the same compound?
Answer: >4.88 ± 0.25 Log10

Question: What about the “reduction of the virus titer” value [2] of the same compound?
Answer: 4 log10 grades

Question: What about the “virucidal activity” value [2] of the same compound?
Answer: strong virucidal activity

Question: What about the “inhibition of the (RT-)PCR by substance in transport/storage medium (in words)” value [4] of the same compound?
Answer: no inhibition
